pIC50: −log10 of the molar value.
What was measured:
[1] = target: T1, DNA gyrase subunit B (Staphylococcus aureus, UniProt P0A0K8); assay: Supercoiling Assay; details: pH 7.6; 25 °C
Protocol: Supercoiling assay was performed using the commercially available kit (DNA gyrase supercoiling assay kit: SAS4001) from Inspiralis Pvt.limited, Norwich, UK. The assay was performed in 1.5 mL eppendorf tubes at room temperature. […] KOH (pH 7.6), 10 mM magnesium acetate, 10 mM DTT, 2 mM ATP, 500 mM potassium glutamate, 0.05 mg/mL albumin (BSA). While the standard compound novobiocin was the positive control, 4% DMSO was considered as negative control. Subsequently, each reaction was stopped by the addition of 30 µL of Stop dye [40% sucrose, 100 mM Tris-HCl (pH 7.5), 1 mM EDTA and 0.5 mg/mL bromophenol blue] (8), briefly centrifuged for 45 sec and was run in 1% agarose gel in 1X TAE buffer (40mM Tris acetate, 2mM EDTA).

[2] = target: T1, DNA gyrase subunit B; assay: GyraseB Assay; details: pH 7.5
Protocol: Initially, equimolar quantities of about 0.5µM each of E. coli gyraseA and S. aureus gyraseB were incubated for a period of 45 min with salmon sperm DNA (Sigma) in 50mM Tris (pH 7.5), 75mM ammonium acetate buffer for the reconstitution of the hybrid topoisomerases at 4 OC. Later the assay was performed in a 96-well microtiter plate as mentioned earlier (7). […] The reaction was allowed to proceed for 60 min and was quenched by addition of 20uL of malachite green reagent (POMG-25H, Bioassay systems, USA) subsequently absorbance was read at 650nm after 20 mi

T1 sequence (P0A0K8 whole entry): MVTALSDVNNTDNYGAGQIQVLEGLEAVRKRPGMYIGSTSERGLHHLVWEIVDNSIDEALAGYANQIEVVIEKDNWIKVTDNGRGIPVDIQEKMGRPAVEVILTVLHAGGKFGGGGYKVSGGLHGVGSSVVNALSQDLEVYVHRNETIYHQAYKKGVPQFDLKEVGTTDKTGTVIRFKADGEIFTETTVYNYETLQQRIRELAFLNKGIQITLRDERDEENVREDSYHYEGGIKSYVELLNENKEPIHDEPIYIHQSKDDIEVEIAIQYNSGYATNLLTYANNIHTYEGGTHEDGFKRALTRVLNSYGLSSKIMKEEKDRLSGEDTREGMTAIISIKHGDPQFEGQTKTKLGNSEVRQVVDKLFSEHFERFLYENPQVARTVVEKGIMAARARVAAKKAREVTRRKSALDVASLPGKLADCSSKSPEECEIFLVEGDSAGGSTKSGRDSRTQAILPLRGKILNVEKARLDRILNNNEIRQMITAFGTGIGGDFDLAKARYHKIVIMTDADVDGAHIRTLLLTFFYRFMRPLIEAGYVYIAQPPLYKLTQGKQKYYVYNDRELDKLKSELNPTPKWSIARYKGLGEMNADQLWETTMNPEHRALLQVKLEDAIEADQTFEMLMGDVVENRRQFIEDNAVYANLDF

SMILES | pIC50 [1] | pIC50 [2]
O=C(O)CCC(=O)Nc1ccc(NC(=O)c2ccc[nH]2)cc1 [4-(4-(1H-pyrrole-2-carboxamido)phenylamino)-4-oxobutanoate (19)] | 4.86 | 4.37
Cc1ccc(C(=O)Nc2ccc(NC(=O)CCC(=O)O)cc2)o1 [4-(4-(5-methylfuran-2-carboxamido)phenylamino)-4-oxobutanoate (14)] | 5.21 | 4.99
Cc1ccc(C(=O)Nc2ccc(NC(=O)CCC(=O)O)cc2)s1 [4-(4-(5-methylthiophene-2-carboxamido)phenylamino)-4-oxobutanoate (17)] | 4.90 | 4.61
O=C(O)CCC(=O)Nc1ccc(NC(=O)c2ccc([N+](=O)[O-])o2)cc1 [4-(4-(5-nitrofuran-2-carboxamido)phenylamino)-4-oxobutanoate (15)] | 4.59 | 4.54
O=C(O)CCC(=O)Nc1ccc(NC(=O)c2ccc([N+](=O)[O-])s2)cc1 [4-(4-(5-nitrothiophene-2-carboxamido)phenylamino)-4-oxobutanoate (18)] | 4.57 | 4.53
O=C(O)CCC(=O)Nc1ccc(NC(=O)c2ccc([N+](=O)[O-])s2)cc1 [4-((4-(5-nitrothiophene-2-carboxamido)phenyl)amino)-4-oxobutanoic acid (10)] | 5.21 | 4.90
O=C(O)CCC(=O)Nc1ccc(NC(=O)c2ccco2)cc1 [4-((4-(furan-2-carboxamido)phenyl)amino)-4-oxobutanoic acid (5)] | 5.51 | –
O=C(O)CCC(=O)Nc1ccc(NC(=O)C2CCCO2)cc1 (stereo not drawn) [4-oxo-4-(4-(tetrahydrofuran-2-carboxamido)phenylamino)butanoate (20)] | 5.21 | 4.93
O=C(O)CCC(=O)Nc1ccc(NC(=O)c2cccs2)cc1 [4-oxo-4-((4-(thiophene-2-carboxamido)phenyl)amino)butanoate (16)] | 4.90 | 4.66
NNC(=O)CCC(=O)Nc1ccc(NC(=O)c2ccc[nH]2)cc1 [N-(4-(4-Hydrazinyl-4-oxobutanamido)phenyl)-1H-pyrrole-2-carboxamide (27)] | 4.37 | 4.26
Cc1ccc(C(=O)Nc2ccc(NC(=O)CCC(=O)NN)cc2)o1 [N-(4-(4-Hydrazinyl-4-oxobutanamido)phenyl)-5-methylfuran-2-carboxamide (22)] | 5.55 | 5.27
Cc1ccc(C(=O)Nc2ccc(NC(=O)CCC(=O)NN)cc2)s1 [N-(4-(4-Hydrazinyl-4-oxobutanamido)phenyl)-5-methylthiophene-2-carboxamide (25)] | 5.21 | 5.01
NNC(=O)CCC(=O)Nc1ccc(NC(=O)c2ccc([N+](=O)[O-])o2)cc1 [N-(4-(4-Hydrazinyl-4-oxobutanamido)phenyl)-5-nitrofuran-2-carboxamide (23)] | 4.60 | 4.45
NNC(=O)CCC(=O)Nc1ccc(NC(=O)c2ccc([N+](=O)[O-])s2)cc1 [N-(4-(4-Hydrazinyl-4-oxobutanamido)phenyl)-5-nitrothiophene-2-carboxamide (26)] | 4.71 | 4.58
NNC(=O)CCC(=O)Nc1ccc(NC(=O)c2ccco2)cc1 [N-(4-(4-Hydrazinyl-4-oxobutanamido)phenyl)furan-2-carboxamide (21)] | 4.62 | 4.40
NNC(=O)CCC(=O)Nc1ccc(NC(=O)C2CCCO2)cc1 (stereo not drawn) [N-(4-(4-Hydrazinyl-4-oxobutanamido)phenyl)tetrahydrofuran-2-carboxamide (28)] | 4.64 | 4.39
NNC(=O)CCC(=O)Nc1ccc(NC(=O)c2cccs2)cc1 [N-(4-(4-Hydrazinyl-4-oxobutanamido)phenyl)thiophene-2-carboxamide (24)] | 4.55 | 4.49

— BindingDB's records for doi:10.1111/cbdd.12529 (Birla Institute of Technology, 2015)
